Among the test systems are SK-OV-3; MCF7; T47D; SN12C; IGROV-1; NCI-H522; HL-60; CAKI-1; ACHN; COLO 205; MDA-MB-435; SF-539; SK-MEL-28; HCT-15; NCI-H226; MDA-MB-231; OVCAR-8; TK-10; NCI-H460; LOX IMVI.
Common to all, as to assay: growth of human tumour cells (NCI), 48 h

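How tested: cells in 96-well plates exposed to compound for 48 hours at five concentrations. GI50 marks 50% less growth.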 Calls of active or inactive are those of the source. No stated cut-off is given here; in the data, active = GI50 up to about 1.1 µM and inactive = higher. A value given as a limit tells only on which side of the number the result lay.

Take `COC(=O)c1cc2c(n1S(=O)(=O)c1ccc(C)cc1)C(=O)C(=O)c1[nH]cc(C(=O)OCc3ccccc3)c1-2`: the GI50 was 0.871 µM (active) in the assay with SK-OV-3; 0.0668 µM (active) with MCF7; 0.216 µM (active) with T47D; 0.08 µM (active) with SN12C; 0.197 µM (active) with IGROV-1; 0.094 µM (active) in the assay with NCI-H522. For the same compound, the GI50 with HL-60 is 0.0289 µM (active); in the assay with CAKI-1, 0.355 µM (active); with ACHN it was 0.233 µM (active); in the assay with COLO 205, 0.191 µM (active); in the assay with MDA-MB-435, < 0.015 µM (active); in the assay on SF-539, 0.136 µM (active). Also, the GI50 in the assay on SK-MEL-28 was 0.107 µM (active); in the assay on HCT-15, 0.0673 µM; in the assay with NCI-H226, 0.199 µM (active); in the assay on MDA-MB-231, 0.0274 µM (active); with OVCAR-8, 0.0989 µM (active); in the assay on TK-10 it was 0.716 µM (active). Also, the figures for the GI50 with NCI-H460 and with LOX IMVI were 1.37 µM (inactive) and 0.0553 µM (active), respectively.
As to `CCCCCCNCCCNc1c2ccccc2nc2cccc([N+](=O)[O-])c12`, the GI50 is 0.051 µM (active) with SK-OV-3; 0.00376 µM (active) in the assay on MCF7; 0.0369 µM (active) in the assay with T47D; 0.0173 µM (active) with SN12C; 0.00873 µM (active) in the assay with IGROV-1; 0.0121 µM (active) with NCI-H522. The GI50 in the assay on HL-60 was 0.0151 µM (active); in the assay with CAKI-1, 0.0548 µM (active); in the assay on ACHN, 0.0132 µM (active); with COLO 205 it was 0.00347 µM (active); with MDA-MB-435 it was 0.0103 µM (active); in the assay with SF-539, 0.116 µM (active). In addition, the GI50 is 0.158 µM (active) in the assay on SK-MEL-28; 0.0615 µM in the assay on HCT-15; 0.0547 µM (active) with NCI-H226; 0.0229 µM (active) in the assay on MDA-MB-231; 0.012 µM (active) with OVCAR-8; 0.0621 µM (active) in the assay on TK-10. Also, the figures for the GI50 with NCI-H460 and in the assay with LOX IMVI were 0.00269 µM (active) and 0.0193 µM (active), respectively.
Regarding `Cn1c(-c2cccs2)cc(-c2ccccc2)c1-c1cccs1`, the GI50 with SK-OV-3 is 36.1 µM (inactive); in the assay on MCF7 it was 3.58 µM (inactive); in the assay on T47D, > 100 µM (inactive); with SN12C, > 100 µM (inactive); with IGROV-1, 39.4 µM (inactive); in the assay on NCI-H522, 50.8 µM (inactive). In addition, the GI50 in the assay on HL-60 is 68.7 µM (inactive); in the assay on CAKI-1, 93.5 µM (inactive); in the assay on ACHN, 39.9 µM (inactive); in the assay with COLO 205, 19.1 µM (inactive); in the assay on MDA-MB-435, > 100 µM (inactive); in the assay on SF-539 it was 43.8 µM (inactive). Further, the GI50 in the assay with SK-MEL-28 was > 100 µM (inactive); in the assay with HCT-15, greater than 100 µM; in the assay with NCI-H226, 45.4 µM (inactive); in the assay with MDA-MB-231, > 100 µM (inactive); in the assay on OVCAR-8, 65.2 µM (inactive); with TK-10 it was > 100 µM (inactive). The GI50 with NCI-H460 and with LOX IMVI was > 100 µM (inactive) each time.
`CC(C)=CC(=O)c1[nH]c2ccccc2c1CC(=O)NCCc1c[nH]cn1`: the GI50 in the assay with SK-OV-3, in the assay on MCF7, with T47D, in the assay on SN12C, with IGROV-1 and in the assay on NCI-H522 was > 100 µM (inactive) in each case. Also, the GI50 in the assay with HL-60, in the assay on CAKI-1, in the assay with ACHN, in the assay on COLO 205, in the assay with MDA-MB-435 and with SF-539 was > 100 µM (inactive) each time. For the same compound, the GI50 in the assay with SK-MEL-28 is > 100 µM (inactive); with HCT-15, greater than 100 µM; in the assay on NCI-H226 it was > 100 µM (inactive); with MDA-MB-231, > 100 µM (inactive); in the assay on OVCAR-8, > 100 µM (inactive); with TK-10, > 100 µM (inactive). Moreover, the GI50 in the assay on NCI-H460 and in the assay with LOX IMVI was > 100 µM (inactive) each time.
In the case of `COC(=O)c1ccccc1C1CN=NC12Cc1c(ccc3c1CCC3)C2=O` (stereo not given), the GI50 with SK-OV-3 was > 100 µM (inactive); with MCF7, 50.9 µM (inactive); with T47D, 54 µM (inactive); with SN12C, 95.3 µM (inactive); in the assay with IGROV-1, 88.7 µM (inactive); with NCI-H522, 0.635 µM (active). For the same compound, the GI50 in the assay on HL-60 is 23.4 µM (inactive); in the assay on CAKI-1, > 100 µM (inactive); in the assay with ACHN it was 72.4 µM (inactive); in the assay with COLO 205, 47.8 µM (inactive); with MDA-MB-435 it was 23.9 µM (inactive); with SF-539, > 100 µM (inactive). In addition, the GI50 in the assay with SK-MEL-28 is 95.1 µM (inactive); with HCT-15, 41.5 µM; with NCI-H226, 41.5 µM (inactive); in the assay with MDA-MB-231, 67.8 µM (inactive); in the assay on OVCAR-8 it was 92.5 µM (inactive); with TK-10 it was > 100 µM (inactive). The GI50 was > 100 µM (inactive) in the assay with NCI-H460 and 23.8 µM (inactive) in the assay with LOX IMVI.
Turning to `COc1ccc2nc3ccc(OC)cc3c([S+]([O-])Cc3ccc([N+](=O)[O-])cc3)c2c1` (stereo not given), the GI50 is 21.1 µM (inactive) with SK-OV-3; 1.92 µM (inactive) in the assay on MCF7; 1.95 µM (inactive) in the assay with T47D; 3.65 µM (inactive) with SN12C; 5.3 µM (inactive) in the assay on IGROV-1; 1.73 µM (inactive) in the assay on NCI-H522. Also, the GI50 in the assay with HL-60 was 1.75 µM (inactive); in the assay with CAKI-1, 15.3 µM (inactive); in the assay with ACHN, 5.52 µM (inactive); in the assay with COLO 205, 2.92 µM (inactive); in the assay on MDA-MB-435 it was 8.07 µM (inactive); in the assay on SF-539, 2.81 µM (inactive). Moreover, the GI50 is 5.97 µM (inactive) with SK-MEL-28; 3.19 µM in the assay with HCT-15; 22.9 µM (inactive) with NCI-H226; 15.7 µM (inactive) with MDA-MB-231; 3.39 µM (inactive) in the assay with OVCAR-8; 5.9 µM (inactive) with TK-10. Further, the GI50 with NCI-H460 is 23.3 µM (inactive); in the assay on LOX IMVI it was 5.16 µM (inactive).
With `CC(=O)/C(=C/NC(=S)Nc1ccccc1)C(=O)Nc1ccccc1C`, the GI50 is > 100 µM (inactive) in the assay with SK-OV-3; > 100 µM (inactive) in the assay on MCF7; 52.4 µM (inactive) in the assay with T47D; > 100 µM (inactive) in the assay on SN12C; > 100 µM (inactive) in the assay on IGROV-1; > 100 µM (inactive) with NCI-H522. Besides, the GI50 in the assay on HL-60 was 84.9 µM (inactive); with CAKI-1, 40.9 µM (inactive); in the assay on ACHN, > 100 µM (inactive); in the assay on COLO 205 it was > 100 µM (inactive); with MDA-MB-435, > 100 µM (inactive); in the assay on SF-539, > 100 µM (inactive). Also, the GI50 is > 100 µM (inactive) in the assay with SK-MEL-28; greater than 100 µM in the assay on HCT-15; > 100 µM (inactive) in the assay with NCI-H226; 29.4 µM (inactive) in the assay with MDA-MB-231; > 100 µM (inactive) in the assay with OVCAR-8; > 100 µM (inactive) with TK-10. For the same compound, the GI50 with NCI-H460 and with LOX IMVI was > 100 µM (inactive) each time.
For `CC(C)(C)OC(=O)NCCCCC(NC(=O)OCc1ccccc1)C(N)=O` (stereo not given), the GI50 with SK-OV-3, with MCF7, in the assay with T47D, in the assay on SN12C, with IGROV-1 and in the assay with NCI-H522 was > 100 µM (inactive) in each case. Besides, the GI50 in the assay on HL-60, with CAKI-1, with ACHN, in the assay with COLO 205, in the assay with MDA-MB-435 and in the assay with SF-539 was > 100 µM (inactive) in each case. For the same compound, the GI50 in the assay with SK-MEL-28 was > 100 µM (inactive); in the assay on HCT-15, greater than 100 µM; in the assay on NCI-H226 it was > 100 µM (inactive); with MDA-MB-231, > 100 µM (inactive); in the assay on OVCAR-8, > 100 µM (inactive); with TK-10 it was > 100 µM (inactive). Moreover, the GI50 with NCI-H460 and in the assay on LOX IMVI was > 100 µM (inactive) each time.
Regarding `COc1ccc(/N=N/c2ccc3oc(=O)c(C(=O)Nc4ccc(OC)cc4)cc3c2)cc1`, the GI50 is 19.5 µM (inactive) in the assay with SK-OV-3; 16.1 µM (inactive) in the assay with MCF7; 4.23 µM (inactive) in the assay with T47D; 14 µM (inactive) in the assay on SN12C; 16.1 µM (inactive) in the assay with IGROV-1; 26.5 µM (inactive) with NCI-H522. Besides, the GI50 in the assay with HL-60 is 5.69 µM (inactive); in the assay on CAKI-1, 25.6 µM (inactive); with ACHN it was 18.2 µM (inactive); in the assay with COLO 205, 20.8 µM (inactive); in the assay on MDA-MB-435, 16.7 µM (inactive); in the assay with SF-539 it was 6.95 µM (inactive). In addition, the GI50 in the assay with SK-MEL-28 is 15.6 µM (inactive); with HCT-15, 6.79 µM; with NCI-H226 it was 13.1 µM (inactive); with MDA-MB-231 it was 23.5 µM (inactive); in the assay on OVCAR-8 it was 14.3 µM (inactive); with TK-10, 22.4 µM (inactive). In addition, the GI50 was 20.4 µM (inactive) in the assay on NCI-H460 and 3.71 µM (inactive) in the assay on LOX IMVI.
For `[O-][n+]1ccc(NO)c2ccccc21`, the GI50 was 0.518 µM (active) in the assay with SK-OV-3; 0.883 µM (active) in the assay with MCF7; 1.67 µM (inactive) in the assay with T47D; 1.38 µM (inactive) in the assay on SN12C; 1.65 µM (inactive) with IGROV-1; 1.51 µM (inactive) in the assay with NCI-H522. The GI50 in the assay with HL-60 is 0.923 µM (active); with CAKI-1, 1.16 µM (inactive); in the assay with ACHN, 0.796 µM (active); in the assay on COLO 205, 1.41 µM (inactive); in the assay on MDA-MB-435, 4.6 µM (inactive); in the assay with SF-539, 0.679 µM (active). Moreover, the GI50 is 1.3 µM (inactive) with SK-MEL-28; 1.75 µM in the assay on HCT-15; 1.87 µM (inactive) in the assay with NCI-H226; 1.32 µM (inactive) in the assay on MDA-MB-231; 0.561 µM (active) in the assay with OVCAR-8; 2.02 µM (inactive) with TK-10. Besides, the GI50 was 0.295 µM (active) with NCI-H460 and 1.45 µM (inactive) with LOX IMVI.

The record behind these values is ChEMBL document CHEMBL1201862, “PubChem BioAssay data set” (2004).
